In patent US4684651A, “Alkylenedioxybenzene and acid addition salts thereof useful as hypotensives” (Mitsubishi Chemical Industries Limited, priority 1981, dated 1987):
Structures can show the parent of a compound that is named as a salt.

Columns and labels:
[1] = test system: spontaneous hypertensive rats (SHR); assay: Hypotensive activity in spontaneous hypertensive rats (oral); assay type: in vivo; settings: Rattus norvegicus, relative to blood pressure before medication, read-out: Hypotensive effect (average % drop in blood pressure); for inhibition in vivo at 1 mg/kg: 1 mg/kg p.o.; for inhibition in vivo at 3 mg/kg: 3 mg/kg p.o.; for inhibition in vivo at 10 mg/kg: 10 mg/kg p.o.
Protocol: The hypotensive activities of the compounds of this invention were tested as follows: The test animals used were spontaneous hypertensive rats (SHR) of 5 to 7 month old weighing 300 to 370 g. The blood pressure and the heart rate were measured bloodily under no anesthesia by means of a catheter which has been inserted through the tail's artery under ether anesthesia, thereby determining the average blood pressure and heart rate before medication. […] The hypotensive effect was expressed as percent drop relative to the blood pressure before medication.

[2] = Acute toxicity (LD50) in mice; settings: mouse, in vivo, iv, Litchfield-Wilcoxon method
Protocol: The values for acute toxicity (LD50) were calculated by the Litchfield-Wilcoxon method from the data obtained on mice.

With `COc1ccccc1N1CCN(CC(O)c2ccc3c(c2)OCO3)CC1` (centres unmarked) [Compound 2, 5-[2-[4-(2-methoxyphenyl)-1-piperazinyl]-1-hydroxyethyl]-1,3-benzodioxole] the inhibition in vivo at 1 mg/kg [1] was 10.2%, the inhibition in vivo at 3 mg/kg [1] was 19.2% and the inhibition in vivo at 10 mg/kg [1] was 36.5%.
`OC(CN1CCN(c2ccccc2)CC1)c1ccc2c(c1)OCCCO2` (centres unmarked) [Compound 8, 7-[2-(4-phenyl-1-piperazinyl)-1-hydroxyethyl]-1,5-benzodioxepine] showed an inhibition in vivo at 1 mg/kg [1] of 8.6%, an inhibition in vivo at 3 mg/kg [1] of 14.1% and an inhibition in vivo at 10 mg/kg [1] of 25%.
Compound `OC(CCN1CCN(c2ccccc2Cl)CC1)c1ccc2c(c1)OCCO2` (centres unmarked) [Compound 16] has an inhibition in vivo at 1 mg/kg [1] of 7.9%, an inhibition in vivo at 3 mg/kg [1] of 11.9% and an inhibition in vivo at 10 mg/kg [1] of 29.8%.
For `COc1ccccc1N1CCN(CCC(O)c2ccc3c(c2)OCCO3)CC1` (centres unmarked) [Compound 17], the inhibition in vivo at 1 mg/kg [1] was 8.1%, the inhibition in vivo at 3 mg/kg [1] was 20.5% and the inhibition in vivo at 10 mg/kg [1] was 53.1%.
With `OC(CCCN1CCN(c2ccccc2)CC1)c1ccc2c(c1)OCO2` (centres unmarked) [Compound 19, 5-[4-(4-phenyl-1-piperazinyl)-1-hydroxybutyl]-1,3-benzodioxole dihydrochloride] the inhibition in vivo at 1 mg/kg [1] was 12.8%, the inhibition in vivo at 3 mg/kg [1] was 45.9% and the inhibition in vivo at 10 mg/kg [1] was 56.6%.
Compound `OC(CCCN1CCN(c2ccccc2)CC1)c1ccc2c(c1)OCCO2` (centres unmarked) [Compound 20, 6-[4-(4-phenyl-1-piperazinyl)-1-hydroxybutyl]-1,4-benzodioxane] has an inhibition in vivo at 1 mg/kg [1] of 13.7%, an inhibition in vivo at 3 mg/kg [1] of 38.4% and an inhibition in vivo at 10 mg/kg [1] of 56.1%.
In the case of `OC(CCCN1CCN(c2ccccc2)CC1)c1ccc2c(c1)OCCCO2` (centres unmarked) [Compound 21], the LD50 [2] is reported as 184 mg/kg, the inhibition in vivo at 1 mg/kg [1] is reported as 19.8% and the inhibition in vivo at 3 mg/kg [1] is reported as 30.9%. It also gave an inhibition in vivo at 10 mg/kg [1] of 43.4%.
With `OC(CCCN1CCN(c2ccccn2)CC1)c1ccc2c(c1)OCCCO2` (centres unmarked) [Compound 25] the LD50 [2] was 68.5 mg/kg, the inhibition in vivo at 1 mg/kg [1] was 30.3% and the inhibition in vivo at 3 mg/kg [1] was 35.8%. It also gave an inhibition in vivo at 10 mg/kg [1] of 43.9%.
Compound `OC(CCCCN1CCN(c2ccccc2)CC1)c1ccc2c(c1)OCO2` (centres unmarked) [Compound 26, 5-[5-(4-phenyl-1-piperazinyl)-1-hydroxypentyl]-1,3-benzodioxole] has an inhibition in vivo at 1 mg/kg [1] of 13%, an inhibition in vivo at 3 mg/kg [1] of 21.9% and an inhibition in vivo at 10 mg/kg [1] of 52.6%.
`OC(CCCCN1CCN(c2ccccc2)CC1)c1ccc2c(c1)OCCCO2` (centres unmarked) [Compound 29, 7-[5-(4-phenyl-1-piperazinyl)-1-hydroxypentyl]-1,5-benzodioxepine] gave an inhibition in vivo at 1 mg/kg [1] of 10.8%, an inhibition in vivo at 3 mg/kg [1] of 27.5% and an inhibition in vivo at 10 mg/kg [1] of 50.7%.
For `OC(CCCN1CCN(c2ccccn2)CC1)c1ccc2c(c1)OCO2` (centres unmarked) [Compound 31, 5-[4-[4-(2-pyridyl)-1-piperazinyl]-1-hydroxybutyl]-1,3-benzodioxole], the inhibition in vivo at 1 mg/kg [1] was 11.5%, the inhibition in vivo at 3 mg/kg [1] was 33.6% and the inhibition in vivo at 10 mg/kg [1] was 45.7%.
`COc1ccccc1N1CCN(CCCC(O)c2ccc3c(c2)OCCO3)CC1` (centres unmarked) [Compound 33, 6-[4-[4-(2-methoxyphenyl)-1-piperazinyl]-1-hydroxybutyl]-1,4-benzodioxane] gave an inhibition in vivo at 1 mg/kg [1] of 22.6%, an inhibition in vivo at 3 mg/kg [1] of 41.8% and an inhibition in vivo at 10 mg/kg [1] of 43.2%.
Compound `COc1ccccc1N1CCN(CCCC(O)c2ccc3c(c2)OCCCO3)CC1` (centres unmarked) [Compound 34, 7-[4-[4-(2-methoxyphenyl)-1-piperazinyl]-1-hydroxybutyl]-1,5-benzodioxepine] has an inhibition in vivo at 1 mg/kg [1] of 24.5%, an inhibition in vivo at 3 mg/kg [1] of 40.4% and an inhibition in vivo at 10 mg/kg [1] of 48%.
`OC(CCCCN1CCN(c2ccccn2)CC1)c1ccc2c(c1)OCCCO2` (centres unmarked) [Compound 36] gave an inhibition in vivo at 1 mg/kg [1] of 10.1%, an inhibition in vivo at 3 mg/kg [1] of 19.4% and an inhibition in vivo at 10 mg/kg [1] of 31%.
`COc1ccccc1N1CCN(CCCCC(O)c2ccc3c(c2)OCCCO3)CC1` (centres unmarked) [Compound 37] showed an inhibition in vivo at 1 mg/kg [1] of 15.6%, an inhibition in vivo at 3 mg/kg [1] of 30.4% and an inhibition in vivo at 10 mg/kg [1] of 45.7%.
Compound `O=C(CCN1CCN(c2cccc(F)c2)CC1)c1ccc2c(c1)OCCO2` [Compound 51] has an inhibition in vivo at 1 mg/kg [1] of 5.9%, an inhibition in vivo at 3 mg/kg [1] of 14.5% and an inhibition in vivo at 10 mg/kg [1] of 49.9%.
Work on `O=C(CCN1CCN(c2ccccc2)CC1)c1ccc2c(c1)OCCCO2` [Compound 56] yielded an inhibition in vivo at 1 mg/kg [1] of 6.2%, an inhibition in vivo at 3 mg/kg [1] of 17% and an inhibition in vivo at 10 mg/kg [1] of 31.5%.
With `O=C(CCCN1CCN(c2ccccc2)CC1)c1ccc2c(c1)OCCO2` [Compound 58, 6-[4-(4-phenyl-1-piperazinyl)butyryl]-1,4-benzodioxane] the inhibition in vivo at 1 mg/kg [1] was 12.7%, the inhibition in vivo at 3 mg/kg [1] was 51.6% and the inhibition in vivo at 10 mg/kg [1] was 62.7%.
`O=C(CCCN1CCN(c2ccccc2)CC1)c1ccc2c(c1)OCCCO2` [Compound 59] gave an inhibition in vivo at 1 mg/kg [1] of 9.8%, an inhibition in vivo at 3 mg/kg [1] of 34.4% and an inhibition in vivo at 10 mg/kg [1] of 40.5%.
Work on `O=C(CCCCN1CCN(c2ccccc2)CC1)c1ccc2c(c1)OCO2` [Compound 64, 5-[5-(4-phenyl-1-piperazinyl]valeryl]-1,3-benzodioxole] yielded an LD50 [2] of 45.7 mg/kg, an inhibition in vivo at 1 mg/kg [1] of 10.1% and an inhibition in vivo at 3 mg/kg [1] of 21.3%. It also gave an inhibition in vivo at 10 mg/kg [1] of 54.5%.
Work on `O=C(CCCCN1CCN(c2ccccc2)CC1)c1ccc2c(c1)OCCO2` [Compound 65, 6-[5-(4-phenyl-1-piperwzinyl)valeryl]-1,4-benzodioxane] yielded an inhibition in vivo at 1 mg/kg [1] of 21.7%.
For `O=C(CCCCN1CCN(c2ccccc2)CC1)c1ccc2c(c1)OCCCO2` [Compound 68, 7-[5-(4-phenyl-1-piperazinyl)valeryl]-1,5-benzodioxepine], the inhibition in vivo at 1 mg/kg [1] was 12.5%, the inhibition in vivo at 3 mg/kg [1] was 28.6% and the inhibition in vivo at 10 mg/kg [1] was 44%.
With `COc1ccccc1N1CCN(CCCCC(=O)c2ccc3c(c2)OCCCO3)CC1` [Compound 69] the inhibition in vivo at 1 mg/kg [1] was 23.8%.
For `O=C(CCCN1CCN(c2ccccn2)CC1)c1ccc2c(c1)OCO2` [Compound 71, 5-[4-[4-(2-pyridyl)-1-piperazinyl]butyryl]-1,3-benzodioxole], the inhibition in vivo at 1 mg/kg [1] was 11.5%, the inhibition in vivo at 3 mg/kg [1] was 20.9% and the inhibition in vivo at 10 mg/kg [1] was 43.1%.
Work on `O=C(CCCN1CCN(c2ccccn2)CC1)c1ccc2c(c1)OCCO2` [Compound 72, 6-[4-[4-(2-pyridyl)-1-piperazinyl]butyryl]-1,4-benzodioxane] yielded an inhibition in vivo at 1 mg/kg [1] of 10.1%, an inhibition in vivo at 3 mg/kg [1] of 25.3% and an inhibition in vivo at 10 mg/kg [1] of 46.4%.
Work on `COc1ccccc1N1CCN(CCCC(=O)c2ccc3c(c2)OCCO3)CC1` [Compound 74, 6-[4-[4-(2-methoxyphenyl)-1-piperazinyl]butyryl]-1,4-benzodioxane] yielded an inhibition in vivo at 1 mg/kg [1] of 29.9%.
With `COc1ccccc1N1CCN(CCCCC(=O)c2ccc3c(c2)OCCO3)CC1` [Compound 76, 6-[5-[4-(2-methoxyphenyl)-1-piperazinyl]varleryl]-1,4-benzodioxane] the inhibition in vivo at 1 mg/kg [1] was 8.6%, the inhibition in vivo at 3 mg/kg [1] was 23.7% and the inhibition in vivo at 10 mg/kg [1] was 56.7%.
In the case of `COc1ccccc1N1CCN(CCCCC(=O)c2ccc3c(c2)OCO3)CC1` [Compound 77, 5-[5-[4-(2-methoxyphenyl)-1-piperazinyl]valeryl]-1,3-benzodioxole], the inhibition in vivo at 1 mg/kg [1] is reported as 12.9%, the inhibition in vivo at 3 mg/kg [1] is reported as 21.5% and the inhibition in vivo at 10 mg/kg [1] is reported as 34.5%.
In the case of `O=C(CCCCN1CCN(c2ccccn2)CC1)c1ccc2c(c1)OCCCO2` [Compound 78, 7-[5-[4-(2-pyridyl)-1-piperazinyl]valeryl]-1,5-benzodioxepine], the inhibition in vivo at 1 mg/kg [1] is reported as 13.7%, the inhibition in vivo at 3 mg/kg [1] is reported as 24.9% and the inhibition in vivo at 10 mg/kg [1] is reported as 27.8%.
In the case of `COc1ccccc1N1CCN(CCCCC(=O)c2ccc3c(c2)OCC(C)(C)CO3)CC1` [Compound 79, 7-[5-[4-(2-methoxyphenyl)-1-piperazinyl]valeryl]-3,3-dimethyl-1,5-benzodioxepine], the inhibition in vivo at 1 mg/kg [1] is reported as 8%, the inhibition in vivo at 3 mg/kg [1] is reported as 15.8% and the inhibition in vivo at 10 mg/kg [1] is reported as 32.5%.
Compound `COc1ccccc1N1CCN(CCN(C(C)=O)c2ccc3c(c2)OCO3)CC1` [Compound 81, N-[2-[4-(2-methoxyphenyl)-1-piperazinyl]ethyl]-N-acetyl-3,4-methylenedioxyaniline hydrochloride] has an inhibition in vivo at 1 mg/kg [1] of 15.5% and an inhibition in vivo at 3 mg/kg [1] of 21.2%.
